Here are results for 1 compound from ChEMBL document CHEMBL4680360, “Novel Oxazine Monoacylglycerol Lipase (MAGL) Inhibitors” (ACS Med Chem Lett, 2021).

SMILES strings stand for the structures.

This assay addresses T1, Monoglyceride lipase (Homo sapiens, UniProt Q99685).
T1 sequence (Q99685 whole entry): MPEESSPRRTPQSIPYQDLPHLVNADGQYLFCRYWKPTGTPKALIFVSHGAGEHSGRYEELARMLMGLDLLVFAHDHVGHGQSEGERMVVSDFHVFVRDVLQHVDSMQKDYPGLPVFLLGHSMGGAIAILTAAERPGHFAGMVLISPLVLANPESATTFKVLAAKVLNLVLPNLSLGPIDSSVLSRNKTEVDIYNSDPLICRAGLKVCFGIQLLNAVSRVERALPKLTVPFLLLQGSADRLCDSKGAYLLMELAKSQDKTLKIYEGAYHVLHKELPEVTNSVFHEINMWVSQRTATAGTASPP
In words: Inhibition of MAGL (unknown origin) using 2-AG as substrate incubated for 15 mins followed by substrate addition and measured after 30 mins by mass spectrophotometry.

With `Cc1ccc([C@@H](c2ccccc2)C2CCN(C(=O)N3CC[C@@H]4OCC(=O)N[C@@H]4C3)CC2)cc1`, the IC50 was found to be 0.1 nM.
